21 molecules from PubChem BioAssay AID248 (DTP/NCI, 2004) can be followed below.

Each structure is given as a SMILES string. Values joined by “and” are separate entries in the source; they are usually repeats but may differ in a detail not shown here. Equal values may be shown once. Inconclusive results and toxic doses are left out.

This assay deals with L1210 leukemia ip in BDF1 mice, survival T/C. As to the kind of experiment: NCI In Vivo Anticancer Drug Screen. Data for tumor model L1210 Leukemia (intraperitoneal) in B6D2F1 (BDF1) mice. The following applies: endpoint: mean survival time, higher = longer survival. Put shortly:
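Antitumor effect is assessed in tumor-bearing animals. Survival in the compound arm is compared with a vehicle-dosed control arm and expressed as their quotient.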

Setting [1] is: dose: 100.0 mg/kg/injection, schedule: Q01DX009 (ip), vehicle: Klucel (hydroxypropylcellulose) (HPC).
Setting [2] is: dose: 200.0 mg/kg/injection, schedule: Q01DX009 (ip), vehicle: Klucel (hydroxypropylcellulose) (HPC).
[3] abbreviates: dose: 50.0 mg/kg/injection, schedule: Q01DX009 (ip), vehicle: saline with Tween-80.
Where [4] appears, read: dose: 100.0 mg/kg/injection, schedule: Q01DX009 (ip), vehicle: saline with Tween-80.
Setting [5] is: dose: 100.0 mg/kg/injection, schedule: Q04DX003 (ip), vehicle: Klucel (hydroxypropylcellulose) (HPC).
The mark [6] stands for this setting: dose: 200.0 mg/kg/injection, schedule: Q01DX009 (ip), vehicle: saline with Tween-80.
The mark [7] stands for this setting: dose: 200.0 mg/kg/injection, schedule: Q04DX003 (ip), vehicle: Klucel (hydroxypropylcellulose) (HPC).
Where [8] appears, read: dose: 400.0 mg/kg/injection, schedule: Q04DX003 (ip), vehicle: Klucel (hydroxypropylcellulose) (HPC).
[9] abbreviates: dose: 100.0 mg/kg/injection, schedule: Q01DX001 (ip), vehicle: carboxymethylcellulose (CMC).
Setting [10] is: dose: 200.0 mg/kg/injection, schedule: Q01DX001 (ip), vehicle: carboxymethylcellulose (CMC).
[11] abbreviates: dose: 400.0 mg/kg/injection, schedule: Q01DX001 (ip), vehicle: carboxymethylcellulose (CMC).

Take `Cc1cc(C)c(C)c(OC(=O)Nc2cc(Cl)ccc2C)c1`: the T/C by setting is: under setting [1], 94 % of control; under setting [2], 94 % of control; (dose: 400.0 mg/kg/injection, schedule: Q01DX009 (ip), vehicle: Klucel (hydroxypropylcellulose) (HPC)) 95 % of control.

For `O=C1CC(=P(c2ccccc2)(c2ccccc2)c2ccccc2)C(=O)O1`, the T/C runs as follows: under setting [3], 103 % of control; under setting [4], 103 % of control; under setting [5], 93 % of control; under setting [6], 100 % of control; under setting [7], 95 % of control; under setting [8], 93 % of control.

Regarding `Cc1ccnc(N)c1`, the T/C reads like this: (dose: 12.5 mg/kg/injection, schedule: Q04DX002 (ip), vehicle: saline) 114 % of control; (dose: 25.0 mg/kg/injection, schedule: Q04DX002 (ip), vehicle: saline) 102 % of control; (dose: 50.0 mg/kg/injection, schedule: Q04DX002 (ip), vehicle: saline) 96 % of control.

For the molecule `Cc1ccc(Oc2ccc3cc[n+](C)cc3c2)cc1`, the T/C was 94 % of control (dose: 6.25 mg/kg/injection, schedule: Q04DX002 (ip), vehicle: DMSO); 105 % of control (dose: 12.5 mg/kg/injection, schedule: Q04DX002 (ip), vehicle: DMSO); 102 % of control (dose: 25.0 mg/kg/injection, schedule: Q04DX002 (ip), vehicle: DMSO).

As to `CN(C(=O)c1cc([N+](=O)[O-])ccc1O)c1ccccc1`, the T/C (dose: 100.0 mg/kg/injection, schedule: Q01DX001 (ip), vehicle: saline) was 98 % of control; the T/C (dose: 200.0 mg/kg/injection, schedule: Q01DX001 (ip), vehicle: saline) was 95 % of control; the T/C (dose: 400.0 mg/kg/injection, schedule: Q01DX001 (ip), vehicle: saline) is 101 % of control.

With `CCOC(=O)C(C(C)=O)C1c2ccccc2Nc2ccccc21` (centres undefined), the T/C is, setting by setting: under setting [3], 98 % of control; under setting [4], 109 % of control; under setting [6], 106 % of control.

For `CC(C)/C(=N\N=C(\c1ccccc1)C(C)C)c1ccccc1`, the T/C was 94 % of control (dose: 100.0 mg/kg/injection, schedule: Q04DX002 (ip), vehicle: saline with Tween-80); 87 % of control (dose: 200.0 mg/kg/injection, schedule: Q04DX002 (ip), vehicle: saline with Tween-80); 97 % of control (dose: 400.0 mg/kg/injection, schedule: Q04DX002 (ip), vehicle: saline with Tween-80).

Consider `COC(=O)CS(=O)(=O)C(C)(C)C(=O)c1ccccc1`, for which the T/C is 96 % of control (dose: 37.5 mg/kg/injection, schedule: Q01DX009 (ip), vehicle: saline); 92 % of control (dose: 75.0 mg/kg/injection, schedule: Q01DX009 (ip), vehicle: saline); 100 % of control (dose: 150.0 mg/kg/injection, schedule: Q01DX009 (ip), vehicle: saline); 94 % of control (dose: 300.0 mg/kg/injection, schedule: Q01DX009 (ip), vehicle: saline).

As to `CCOC(=O)C12CCCCC1=CC1(CC2)SCCS1` (centres undefined), the T/C is 88 % of control (dose: 100.0 mg/kg/injection, schedule: Q01DX009 (ip), vehicle: acetone); 91 % of control (dose: 200.0 mg/kg/injection, schedule: Q01DX009 (ip), vehicle: acetone); 246 % of control (dose: 400.0 mg/kg/injection, schedule: Q01DX009 (ip), vehicle: acetone).

For `COc1ccc(N2C(=O)CCC2=S)cc1`, the T/C (dose: 50.0 mg/kg/injection, schedule: Q01DX001 (ip), vehicle: carboxymethylcellulose (CMC)) was 104 % of control; the T/C under setting [9] was 96 % of control; the T/C under setting [10] was 102 % of control; the T/C under setting [11] is 102 % of control.

For `[O]=[Sn]([c]1ccccc1)[c]1ccccc1`, under “dose: 64.0 mg/kg/injection, schedule: Q04DX002 (ip), vehicle: saline with Tween-80”, the T/C was 313 % of control.

As for `NC(N)=N/N=C/c1c2ccccc2cc2ccccc12`, the T/C runs as follows: (dose: 15.0 mg/kg/injection, schedule: Q01DX Z (ip), vehicle: carboxymethylcellulose (CMC)) 101 % of control; (dose: 30.0 mg/kg/injection, schedule: Q01DX Z (ip), vehicle: carboxymethylcellulose (CMC)) 101 % of control; (dose: 240.0 mg/kg/injection, schedule: Q01DX Z (oral), vehicle: carboxymethylcellulose (CMC)) 104 % of control.

Consider `CCOP(=O)(CCl)NC12CC3CC(CC(C3)C1)C2` (centres undefined), for which the T/C under setting [5] was 96 % of control and the T/C under setting [7] was 100 % of control.

Turning to `C(CCCCCC1CCC2CCCC2C1)CCCCC1CCC2CCCC2C1` (centres undefined), the T/C by setting is: (dose: 100.0 mg/kg/injection, schedule: Q01DX001 (ip), vehicle: saline with Tween-80) 87 % of control; (dose: 200.0 mg/kg/injection, schedule: Q01DX001 (ip), vehicle: saline with Tween-80) 101 % of control; (dose: 400.0 mg/kg/injection, schedule: Q01DX001 (ip), vehicle: saline with Tween-80) 87 % of control.

Take `CC(=O)C12OC(C)(C)OC1CC1C3CCC4=CC(=O)CCC4(C)C3CCC12C` (centres undefined): the T/C (dose: 12.5 mg/kg/injection, schedule: Q04DX002 (ip), vehicle: Klucel (hydroxypropylcellulose) (HPC)) is 108 % of control; the T/C (dose: 25.0 mg/kg/injection, schedule: Q04DX002 (ip), vehicle: Klucel (hydroxypropylcellulose) (HPC)) is 108 % of control; the T/C (dose: 50.0 mg/kg/injection, schedule: Q04DX002 (ip), vehicle: Klucel (hydroxypropylcellulose) (HPC)) was 94 % of control.

With `O=C(O)CNCCN1CC(=O)N(c2ccccc2)C1=S`, the T/C by setting is: under setting [9], 93 % of control; (dose: 100.0 mg/kg/injection, schedule: Q01DX009 (ip), vehicle: carboxymethylcellulose (CMC)) 94 % of control and 95 % of control; (dose: 100.0 mg/kg/injection, schedule: Q04DX002 (ip), vehicle: carboxymethylcellulose (CMC)) 97 % of control and 98 % of control; (dose: 100.0 mg/kg/injection, schedule: Q04DX003 (ip), vehicle: carboxymethylcellulose (CMC)) 98 % of control; under setting [10], 98 % of control; (dose: 200.0 mg/kg/injection, schedule: Q01DX009 (ip), vehicle: carboxymethylcellulose (CMC)) 94 % of control and 90 % of control. The T/C reads like this: (dose: 200.0 mg/kg/injection, schedule: Q04DX002 (ip), vehicle: carboxymethylcellulose (CMC)) 91 % of control; (dose: 200.0 mg/kg/injection, schedule: Q04DX003 (ip), vehicle: carboxymethylcellulose (CMC)) 93 % of control; under setting [11], 95 % of control; (dose: 400.0 mg/kg/injection, schedule: Q01DX009 (ip), vehicle: carboxymethylcellulose (CMC)) 86 % of control; (dose: 400.0 mg/kg/injection, schedule: Q04DX002 (ip), vehicle: carboxymethylcellulose (CMC)) 97 % of control and 98 % of control; (dose: 400.0 mg/kg/injection, schedule: Q04DX003 (ip), vehicle: carboxymethylcellulose (CMC)) 89 % of control.

On to `O=[N+]([O-])c1ccc(NN(c2ccccc2)c2ccccc2)c([N+](=O)[O-])c1`, for which the T/C under setting [5] is 98 % of control, the T/C under setting [7] was 97 % of control and the T/C under setting [8] is 90 % of control.

For the molecule `CC1(C)CC2(OC2c2cccc(Cl)c2)C(=O)c2ccccc21` (centres undefined), the T/C reads like this: (dose: 100.0 mg/kg/injection, schedule: Q04DX003 (ip), vehicle: saline with Tween-80) 89 % of control; (dose: 200.0 mg/kg/injection, schedule: Q04DX003 (ip), vehicle: saline with Tween-80) 94 % of control; (dose: 400.0 mg/kg/injection, schedule: Q04DX003 (ip), vehicle: saline with Tween-80) 89 % of control.

Consider `CNc1ccc(C(=O)NC(CCC(=O)O)C(=O)O)cc1[N+](=O)[O-]` (centres undefined), for which the T/C is 105 % of control (dose: 100.0 mg/kg/injection, schedule: Q04DX003 (ip), vehicle: saline); 94 % of control (dose: 200.0 mg/kg/injection, schedule: Q04DX003 (ip), vehicle: saline); 103 % of control (dose: 400.0 mg/kg/injection, schedule: Q04DX003 (ip), vehicle: saline).

As to `O=C(O)c1ccc2c(c1)C(Br)(Br)C2(Br)Br`, the T/C is 98 % of control under setting [4]; 101 % of control under setting [6]; 103 % of control (dose: 400.0 mg/kg/injection, schedule: Q01DX009 (ip), vehicle: saline with Tween-80).

As for `C=Cc1cc(C)cc(OC)c1O`, the T/C is, setting by setting: (dose: 50.0 mg/kg/injection, schedule: Q01DX009 (ip), vehicle: Klucel (hydroxypropylcellulose) (HPC)) 87 % of control; under setting [1], 89 % of control; under setting [2], 87 % of control.
